Test [1] has as its target T1, Sentrin-specific protease 6 (Homo sapiens, UniProt Q9GZR1).
T1 sequence (Q9GZR1 whole entry): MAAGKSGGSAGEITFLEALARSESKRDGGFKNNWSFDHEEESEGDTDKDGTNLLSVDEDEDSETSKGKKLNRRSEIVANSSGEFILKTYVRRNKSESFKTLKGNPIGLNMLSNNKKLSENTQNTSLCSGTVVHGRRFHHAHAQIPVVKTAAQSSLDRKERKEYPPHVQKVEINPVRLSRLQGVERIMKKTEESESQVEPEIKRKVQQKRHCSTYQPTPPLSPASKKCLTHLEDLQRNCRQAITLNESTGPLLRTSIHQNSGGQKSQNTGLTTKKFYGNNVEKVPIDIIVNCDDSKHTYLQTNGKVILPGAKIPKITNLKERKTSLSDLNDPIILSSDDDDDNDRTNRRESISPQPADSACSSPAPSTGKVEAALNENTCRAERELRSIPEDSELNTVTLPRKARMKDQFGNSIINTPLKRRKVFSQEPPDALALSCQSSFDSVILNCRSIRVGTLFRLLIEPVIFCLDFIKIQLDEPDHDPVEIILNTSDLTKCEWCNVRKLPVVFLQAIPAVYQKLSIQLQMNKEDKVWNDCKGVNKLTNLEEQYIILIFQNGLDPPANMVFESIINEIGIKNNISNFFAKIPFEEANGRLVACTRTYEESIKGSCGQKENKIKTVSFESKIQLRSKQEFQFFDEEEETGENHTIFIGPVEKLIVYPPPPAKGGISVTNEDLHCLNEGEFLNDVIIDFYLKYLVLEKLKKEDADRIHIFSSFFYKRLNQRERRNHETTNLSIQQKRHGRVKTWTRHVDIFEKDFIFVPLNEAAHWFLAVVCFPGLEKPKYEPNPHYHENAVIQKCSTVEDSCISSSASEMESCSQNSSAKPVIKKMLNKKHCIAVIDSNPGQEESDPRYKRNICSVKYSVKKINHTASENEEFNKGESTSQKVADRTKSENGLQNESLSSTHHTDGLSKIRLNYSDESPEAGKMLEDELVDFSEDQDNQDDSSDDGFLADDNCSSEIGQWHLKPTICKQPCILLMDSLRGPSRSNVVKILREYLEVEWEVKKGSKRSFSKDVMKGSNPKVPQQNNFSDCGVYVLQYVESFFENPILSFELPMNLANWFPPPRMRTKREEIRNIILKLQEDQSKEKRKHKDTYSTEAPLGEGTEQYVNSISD
Kind of test: SENP6 protease inhibitors, SAR follow-up, biochemical, luminescence, set 2 (AID 588598). The format is functional.

Test [2] has as its target T2, Sentrin-specific protease 8 (Homo sapiens, UniProt Q96LD8).
T2 sequence (Q96LD8 whole entry): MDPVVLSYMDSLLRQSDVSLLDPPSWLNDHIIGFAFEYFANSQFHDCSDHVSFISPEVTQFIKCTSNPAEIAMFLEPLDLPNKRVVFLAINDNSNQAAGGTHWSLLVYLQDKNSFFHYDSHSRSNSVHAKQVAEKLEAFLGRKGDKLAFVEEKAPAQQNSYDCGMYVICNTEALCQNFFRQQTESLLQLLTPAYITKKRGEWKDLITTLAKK
Kind of test: SENP8 protease inhibitors, SAR follow-up, biochemical, luminescence, set 2 (AID 588601). The format is functional.

In test [3] the target is T3, Sentrin-specific protease 7 (Homo sapiens, UniProt Q9BQF6).
T3 sequence (Q9BQF6 whole entry): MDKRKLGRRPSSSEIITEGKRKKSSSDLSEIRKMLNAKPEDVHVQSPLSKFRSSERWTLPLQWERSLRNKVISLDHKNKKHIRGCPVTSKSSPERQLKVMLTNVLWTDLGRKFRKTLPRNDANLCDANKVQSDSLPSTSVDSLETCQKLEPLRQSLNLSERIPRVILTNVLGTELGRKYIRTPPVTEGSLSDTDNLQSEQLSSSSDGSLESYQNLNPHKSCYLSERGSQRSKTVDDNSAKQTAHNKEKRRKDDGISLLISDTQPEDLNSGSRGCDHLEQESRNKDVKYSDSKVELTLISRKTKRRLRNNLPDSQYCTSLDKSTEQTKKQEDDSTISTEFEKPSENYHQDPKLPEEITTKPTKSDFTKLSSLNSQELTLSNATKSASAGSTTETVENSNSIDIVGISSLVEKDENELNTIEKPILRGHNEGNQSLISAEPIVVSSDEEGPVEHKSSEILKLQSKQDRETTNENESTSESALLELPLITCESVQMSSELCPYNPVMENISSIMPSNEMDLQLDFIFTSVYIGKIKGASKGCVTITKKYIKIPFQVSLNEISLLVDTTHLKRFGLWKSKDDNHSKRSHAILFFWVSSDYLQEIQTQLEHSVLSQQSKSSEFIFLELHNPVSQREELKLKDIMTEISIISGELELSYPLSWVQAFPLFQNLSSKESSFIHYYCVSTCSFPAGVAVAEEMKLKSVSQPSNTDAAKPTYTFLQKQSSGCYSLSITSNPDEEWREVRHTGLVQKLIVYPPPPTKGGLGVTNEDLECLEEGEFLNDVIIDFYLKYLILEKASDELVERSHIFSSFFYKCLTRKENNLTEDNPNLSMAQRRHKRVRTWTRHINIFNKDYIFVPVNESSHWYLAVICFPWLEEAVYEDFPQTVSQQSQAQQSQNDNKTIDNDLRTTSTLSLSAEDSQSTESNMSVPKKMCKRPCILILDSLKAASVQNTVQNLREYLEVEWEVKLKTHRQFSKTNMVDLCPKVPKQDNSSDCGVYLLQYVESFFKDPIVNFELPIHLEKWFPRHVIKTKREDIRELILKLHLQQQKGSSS
Kind of test: SENP7 protease inhibitors, SAR follow-up, biochemical, luminescence, set 2 (AID 588600). In kind it is functional.

In test [4] the target is T4, Caspase-3 (Homo sapiens, UniProt P42574).
T4 sequence (P42574 whole entry): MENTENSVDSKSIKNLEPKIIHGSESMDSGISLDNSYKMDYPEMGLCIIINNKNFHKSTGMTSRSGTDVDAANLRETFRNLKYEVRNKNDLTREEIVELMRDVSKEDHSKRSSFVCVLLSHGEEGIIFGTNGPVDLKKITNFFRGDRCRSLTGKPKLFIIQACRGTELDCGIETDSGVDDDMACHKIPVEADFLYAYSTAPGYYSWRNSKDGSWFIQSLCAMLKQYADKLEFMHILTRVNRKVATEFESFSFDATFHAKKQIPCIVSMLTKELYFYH
Briefly: caspase-3 inhibitors as off-family protease, SAR follow-up, selectivity assay for SENP protease inhibitor project, biochemical, luminescence, set 2 (AID 588599). In kind it is functional.

Test [5] has as its target T5, Neuropeptides B/W receptor type 1 (Homo sapiens, UniProt P48145).
T5 sequence (P48145 whole entry): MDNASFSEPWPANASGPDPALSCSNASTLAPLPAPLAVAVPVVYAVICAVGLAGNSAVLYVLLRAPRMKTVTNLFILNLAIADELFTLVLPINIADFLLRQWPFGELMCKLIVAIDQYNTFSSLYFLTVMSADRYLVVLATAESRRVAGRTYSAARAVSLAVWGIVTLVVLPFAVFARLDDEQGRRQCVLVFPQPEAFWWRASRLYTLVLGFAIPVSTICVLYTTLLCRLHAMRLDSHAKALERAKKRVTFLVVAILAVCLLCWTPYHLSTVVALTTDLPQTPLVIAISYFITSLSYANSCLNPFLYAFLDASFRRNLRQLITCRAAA
Kind of test: GPR7 antagonist potency, late-stage follow-up, cell-based, fluorescence, dose response, set 6 (AID 588583). The format is functional.

Test [6] addresses Melanin-concentrating hormone receptor 1 (Homo sapiens, UniProt Q99705). Kind of test: Late-stage fluorescence-based counterscreen for antagonists of the G-protein coupled receptor 7 (GPR7): cell-based dose response assay to identify antagonists of the melanin-concentrating hormone receptor 1 (MCHR1) Set 6. In kind it is functional. (Counterscreens check selectivity or assay interference.)

Test [7] has as its system HEK293. Briefly: HEK cell cytotoxicity by LDH release, dose response, cytotoxicity control for IDE activator project, fluorescence, HEK cells (AID 588440).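 Note: cytotoxicity by LDH release measuring loss of membrane integrity.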 In kind it is functional, cell-based. The note with it: Homo sapiens.
Test [8] can be described thus: inhibitors of intracellular T. cruzi replication, confirmation, NIH3T3 host cells, beta-gal luminescence (AID 2044).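 Note: intracellular parasites grown in NIH/3T3 mouse fibroblasts as host cells; luminescent beta-galactosidase reporter signal from transgenic T. cruzi replicating inside host cells; inhibitors lower the luminescence signal.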 The format is functional, cell-based.
For test [9], the system named is HEK293. Kind of test: optical interference in Abeta FP readout, dose response, artefact control for IDE activator project, biochemical, fluorescence polarization (AID 588442). The following applies: Homo sapiens. The format is functional, cell-based. Background: Polarisation of emitted light reports the rotation of a fluorescent probe.
Test [10] in a line: cytotoxicity toward NIH3T3 fibroblasts, dose response, counter-screen, cell-based, ATP luminescence, mouse fibroblasts (AID 2010).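 Note: cells exposed to compound for about 90 hours before reading.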 The format is functional.
Test [11] deals with T6, Insulin-degrading enzyme (Homo sapiens, UniProt P14735).
T6 sequence (P14735 whole entry): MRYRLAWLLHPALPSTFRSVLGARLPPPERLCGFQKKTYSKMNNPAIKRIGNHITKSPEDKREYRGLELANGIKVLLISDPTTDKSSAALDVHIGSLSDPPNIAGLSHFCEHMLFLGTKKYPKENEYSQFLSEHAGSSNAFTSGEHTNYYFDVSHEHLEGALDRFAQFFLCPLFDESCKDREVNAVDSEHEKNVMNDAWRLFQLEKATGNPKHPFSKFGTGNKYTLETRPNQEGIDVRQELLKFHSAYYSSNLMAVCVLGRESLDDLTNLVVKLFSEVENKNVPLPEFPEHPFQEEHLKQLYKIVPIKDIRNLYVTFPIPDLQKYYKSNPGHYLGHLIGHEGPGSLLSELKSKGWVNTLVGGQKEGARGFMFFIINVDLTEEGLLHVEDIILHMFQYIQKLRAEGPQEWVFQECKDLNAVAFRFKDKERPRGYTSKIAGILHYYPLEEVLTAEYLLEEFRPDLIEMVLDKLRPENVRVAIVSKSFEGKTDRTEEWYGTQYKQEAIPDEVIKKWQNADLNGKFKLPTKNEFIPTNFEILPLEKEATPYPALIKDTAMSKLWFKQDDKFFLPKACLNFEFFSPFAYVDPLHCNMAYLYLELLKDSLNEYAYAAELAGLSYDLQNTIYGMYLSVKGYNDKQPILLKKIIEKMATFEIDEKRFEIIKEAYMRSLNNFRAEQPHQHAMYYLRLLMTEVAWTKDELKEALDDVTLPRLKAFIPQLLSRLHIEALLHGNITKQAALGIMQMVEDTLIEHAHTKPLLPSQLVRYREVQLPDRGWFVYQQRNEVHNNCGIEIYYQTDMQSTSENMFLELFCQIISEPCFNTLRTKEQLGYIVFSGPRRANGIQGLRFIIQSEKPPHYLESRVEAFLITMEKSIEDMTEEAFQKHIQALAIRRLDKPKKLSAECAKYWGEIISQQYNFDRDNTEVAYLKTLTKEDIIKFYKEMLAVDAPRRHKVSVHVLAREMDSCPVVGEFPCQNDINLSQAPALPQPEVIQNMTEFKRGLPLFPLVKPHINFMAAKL
Briefly: activators of endogenous IDE in HEK cells, dose response, cell-based, fluorescence polarization (AID 588439). The format is functional.

The next test has as its system Vero. Kind of test: host cell cytotoxicity of antiviral hits, dose response, cytotoxicity control for West Nile virus antiviral project, secondary assay (AID 1650). In kind it is functional. The following applies: Chlorocebus sabaeus.
Test [12] has as its target T6, Insulin-degrading enzyme. Kind of test: activators of recombinant IDE enzyme, dose response, counter-screen for IDE activator project, biochemical, fluorescence polarization (AID 588681).
The target of test [13] is T1, Sentrin-specific protease 6. Briefly: SAR Analysis of small molecule inhibitors of Sentrin-specific protease 6 (SENP6) using a Luminescent assay. [Related pubchem assays (depositor defined):AID2582, AID2599]. In kind it is functional.
In test [14] the target is T4, Caspase-3. Kind of test: SAR Analysis of small molecule inhibitors of Sentrin-specific proteases (SENPs) using a Caspase-3 Selectivity assay. [Related pubchem assays (depositor defined):AID2540, AID2599, AID434973, AID489001]. The format is functional.
Test [15] addresses T2, Sentrin-specific protease 8. Briefly: SENP8 protease inhibitors, SAR follow-up, biochemical, luminescence (AID 504501). In kind it is functional.
In test [16] the target is T3, Sentrin-specific protease 7. Kind of test: SENP7 protease inhibitors, SAR follow-up, biochemical, luminescence (AID 504497). The format is functional.
Test [17] deals with Ras and Rab interactor 1/Tyrosine-protein kinase ABL1 (Homo sapiens, UniProt P00519+Q13671). The format is functional.
Sequence of Ras and Rab interactor 1/Tyrosine-protein kinase ABL1 (P00519 whole entry): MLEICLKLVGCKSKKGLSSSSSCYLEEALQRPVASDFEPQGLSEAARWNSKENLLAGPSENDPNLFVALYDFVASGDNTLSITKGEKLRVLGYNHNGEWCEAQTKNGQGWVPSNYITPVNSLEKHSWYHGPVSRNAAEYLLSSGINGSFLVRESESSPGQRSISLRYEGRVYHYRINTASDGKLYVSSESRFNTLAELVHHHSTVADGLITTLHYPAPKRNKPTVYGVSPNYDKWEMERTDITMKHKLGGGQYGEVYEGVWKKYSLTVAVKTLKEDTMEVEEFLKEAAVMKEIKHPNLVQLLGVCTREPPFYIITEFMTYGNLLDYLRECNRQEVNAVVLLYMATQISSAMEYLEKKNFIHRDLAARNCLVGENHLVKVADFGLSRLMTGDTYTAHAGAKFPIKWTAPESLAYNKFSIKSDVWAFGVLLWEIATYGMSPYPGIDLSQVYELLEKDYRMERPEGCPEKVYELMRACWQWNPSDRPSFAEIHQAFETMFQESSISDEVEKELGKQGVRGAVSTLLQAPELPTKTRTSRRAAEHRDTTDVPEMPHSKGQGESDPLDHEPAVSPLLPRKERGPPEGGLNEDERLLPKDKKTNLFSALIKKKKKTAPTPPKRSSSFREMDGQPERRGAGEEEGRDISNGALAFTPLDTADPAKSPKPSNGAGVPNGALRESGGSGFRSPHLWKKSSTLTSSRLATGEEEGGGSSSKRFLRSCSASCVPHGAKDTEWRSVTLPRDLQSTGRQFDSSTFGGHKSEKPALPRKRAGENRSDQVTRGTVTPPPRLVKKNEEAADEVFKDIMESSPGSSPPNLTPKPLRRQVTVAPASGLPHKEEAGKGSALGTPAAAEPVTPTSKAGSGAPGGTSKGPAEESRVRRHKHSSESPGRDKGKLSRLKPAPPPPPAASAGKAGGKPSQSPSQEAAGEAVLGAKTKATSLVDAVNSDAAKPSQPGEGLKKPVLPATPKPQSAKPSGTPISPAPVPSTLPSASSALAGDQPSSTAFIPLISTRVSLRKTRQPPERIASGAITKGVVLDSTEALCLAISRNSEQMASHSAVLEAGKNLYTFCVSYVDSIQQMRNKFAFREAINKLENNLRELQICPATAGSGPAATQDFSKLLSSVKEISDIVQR
Sequence of Ras and Rab interactor 1/Tyrosine-protein kinase ABL1 (Q13671 whole entry): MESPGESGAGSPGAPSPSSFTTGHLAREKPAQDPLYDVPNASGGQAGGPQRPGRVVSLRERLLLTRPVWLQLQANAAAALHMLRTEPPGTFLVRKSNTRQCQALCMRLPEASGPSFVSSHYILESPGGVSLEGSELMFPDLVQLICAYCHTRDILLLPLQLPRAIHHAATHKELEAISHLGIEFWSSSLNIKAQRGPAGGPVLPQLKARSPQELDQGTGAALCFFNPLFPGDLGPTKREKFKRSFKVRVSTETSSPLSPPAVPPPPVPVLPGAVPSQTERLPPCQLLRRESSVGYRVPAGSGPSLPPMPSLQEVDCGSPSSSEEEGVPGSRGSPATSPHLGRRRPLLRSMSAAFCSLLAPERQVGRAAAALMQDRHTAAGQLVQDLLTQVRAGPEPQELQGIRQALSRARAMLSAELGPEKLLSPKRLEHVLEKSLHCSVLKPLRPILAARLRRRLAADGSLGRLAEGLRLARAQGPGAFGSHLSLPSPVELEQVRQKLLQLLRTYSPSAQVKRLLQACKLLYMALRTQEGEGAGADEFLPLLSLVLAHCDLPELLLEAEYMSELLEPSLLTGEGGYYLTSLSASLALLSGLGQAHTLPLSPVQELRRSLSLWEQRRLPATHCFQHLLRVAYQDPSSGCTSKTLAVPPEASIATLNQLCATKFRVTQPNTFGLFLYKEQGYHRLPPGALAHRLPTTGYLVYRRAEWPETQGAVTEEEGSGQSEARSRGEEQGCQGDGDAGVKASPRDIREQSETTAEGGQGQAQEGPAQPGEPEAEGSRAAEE

Results on 6 compounds are retold here after ChEMBL document CHEMBL1201862, “PubChem BioAssay data set” (2004).

Active and inactive are the calls of the source. Where only a bound is given, the exact number is not on record here.

Sequence of Melanin-concentrating hormone receptor 1 (Q99705 whole entry): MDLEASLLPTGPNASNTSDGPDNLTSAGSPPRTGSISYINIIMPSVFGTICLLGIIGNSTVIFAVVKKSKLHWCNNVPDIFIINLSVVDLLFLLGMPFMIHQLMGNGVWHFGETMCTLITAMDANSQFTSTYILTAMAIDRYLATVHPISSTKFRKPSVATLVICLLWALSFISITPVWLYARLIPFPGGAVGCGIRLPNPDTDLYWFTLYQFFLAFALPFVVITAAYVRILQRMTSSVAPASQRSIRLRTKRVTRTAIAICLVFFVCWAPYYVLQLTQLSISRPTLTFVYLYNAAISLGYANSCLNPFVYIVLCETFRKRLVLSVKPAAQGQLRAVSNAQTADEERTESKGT

With `CCN(C(=O)c1cc(S(=O)(=O)N(CC)CC)ccc1C)c1nc2ccccc2s1`, the IC50 (in test [1]; in test [2]; in test [3]; at Caspase-3 [4]) was > 99 µM (inactive) throughout.
Consider `O=c1c(-c2ccccc2)c(Br)cnn1Cc1cccc2ccccc12`, for which the IC50 in test [5] and in test [6] was 12 µM (inactive) each time.
As for `CCN1CCN(c2cc(C)c3cc(NC(=S)N4CCN(c5ccccc5)CC4)ccc3n2)CC1`, the IC50 (usually the concentration that gives 50% inhibition) in the test on HEK293 [7] is > 89.2 µM (inactive). Further, the EC50 (as a rule, the midpoint of the concentration-response curve) in test [8] was 1.79 µM (active); in the test on HEK293 [9] it was > 54.7 µM (inactive); in [10], > 60 µM (not active); at Insulin-degrading enzyme [11] it was > 54.7 µM (inactive); on Insulin-degrading enzyme [12] it was > 54.7 µM (inactive). For the same compound, the CC50 (commonly the concentration giving 50% cytotoxicity) in the test with Vero is 19.5 µM (active).
As for `O=C(Nc1nc2ccccc2s1)c1nccs1`, the IC50 is 1.49 µM (active) in [1]; 2.1 µM (active) in test [13]; 0.9 µM (active) at Caspase-3 [14]; 1.55 µM (active) in test [2]; 1.54 µM (active) in test [3]; 2.1 µM (active) in test [15]. For the same compound, the IC50 was 1.01 µM (active) on Caspase-3 [4] and 1.4 µM (active) in [16].
With `Cc1cc(C(C#N)c2c(Cl)cnn(Cc3cccc4ccccc34)c2=O)on1` (centres undefined), the IC50 in [5] and in [6] was 0.136 µM (active) each time.
`O=C(CC1SCCNC1=O)Nc1cc(Cl)cc(Cl)c1` (centres undefined): in test [17], the IC50 was 26.4 µM (inactive).
